Experimental data as given in paper PMC7083565, “In vitro metabolism, reaction phenotyping, enzyme kinetics, CYP inhibition and induction potential of ataluren” (Pharmacology Research & Perspectives, 2020).

Columns and labels:
[1] = Glucuronidation in pooled human lung microsomes; format: in vitro ADME; conditions: lung microsomes 1 mg protein/mL, 10 μmol/L
Procedure: Ataluren at 10 μmol/L, was incubated (n = 1) with pooled human intestinal, lung, and kidney microsomes (1 mg protein/mL, preactivated with alamethicin) to evaluate if ataluren‐O‐1β‐acyl glucuronide will be formed in these extrahepatic tissues. Incubation mixtures and procedures were essentially the same as the above. The supernatant fractions were analyzed by LC‐MS/MS to quantify the formation of ataluren‐O‐1β‐acyl glucuronide and the loss of ataluren. Detailed LC‐MS/MS conditions are summarized in LC‐MS/MS Analysis section. […] The ataluren acyl glucuronide formation rate after 60 minutes incubation was calculated using the amount of metabolite formed (pmol) divided by the protein amount in the incubation sample ([…]) and the incubation time (60 minutes).
Quantification of ataluren loss and ataluren‐O‐1β‐acyl glucuronide formation was carried out with an LC‐MS/MS system, which consisted of two Shimadzu LC‐10ADvp pumps, a SPD10‐AVP UV/Vis detector, a Shimadzu SILHTA autosampler, a Shimadzu DGU‐14A degasser, and a Sciex API 4000 QTRAP mass spectrometer equipped with a Turbo Ionspray ionization source that operated in positive ionization mode. […] Ion transitions monitored were at m/z 285 → m/z 123 for ataluren, m/z 461 → m/z 285 for ataluren acyl glucuronide, and m/z 289 → m/z 127 for ataluren‐D4 (internal standard), respectively.

CYP1A2 = target: T1, CYP1A2 (Homo sapiens, UniProt P05177); experiment: CYP inhibition in pooled human liver microsomes: CYP1A2; format: in vitro ADME; conditions: CYP1A2, HLM, estimated, concentrations up to 400 μmol/L
T1 construct: tissue XenoTech LLC, Celsis-In Vitro Technologies, or Tissue Transformation Technologies; host or cells: pooled human liver microsomes
T1 sequence (P05177 1-516): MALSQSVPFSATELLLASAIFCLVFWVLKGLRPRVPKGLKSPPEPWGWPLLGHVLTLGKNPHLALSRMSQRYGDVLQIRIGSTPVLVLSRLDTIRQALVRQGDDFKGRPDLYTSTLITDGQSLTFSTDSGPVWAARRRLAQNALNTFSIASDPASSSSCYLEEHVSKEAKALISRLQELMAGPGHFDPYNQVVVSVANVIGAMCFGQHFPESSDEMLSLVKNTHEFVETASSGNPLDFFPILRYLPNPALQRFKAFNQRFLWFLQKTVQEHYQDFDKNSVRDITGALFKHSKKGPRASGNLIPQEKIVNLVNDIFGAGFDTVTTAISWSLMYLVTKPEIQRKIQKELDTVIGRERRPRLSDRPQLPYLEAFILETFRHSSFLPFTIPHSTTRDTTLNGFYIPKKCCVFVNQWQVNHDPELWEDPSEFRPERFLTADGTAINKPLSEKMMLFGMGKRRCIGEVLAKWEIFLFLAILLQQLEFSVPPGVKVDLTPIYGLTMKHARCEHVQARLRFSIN
Procedure: The final concentration of each probe substrate was near the experimentally determined Km value for the indicated enzyme. Ataluren or prototypical CYP inhibitors (positive controls) was incubated (n = 3) with probe substrates and HLM in 100 mmol/L phosphate buffer (pH 7.4) in a total volume of approximately 0.25 mL, and the reactions were initiated by the addition of 1 mmol/L NADPH at 37°C. The reactions were carried out using previously established conditions to ensure linearity with respect to protein concentration and incubation time (Table S1). Incubations were stopped with the addition of ice‐cold acetonitrile. Metabolite formation in incubations with test compound and control inhibitors was assessed with LC‐MS/MS methods for each of the reaction products as described in Table S2. […] After 7 minutes incubation at 37°C, the reaction was stopped by the addition of ice‐cold acetonitrile, followed by membrane plate filtration. The filtrates were used for LC‐MS/MS analysis. […] IC50 values were determined by nonlinear regression with GraphPad Prism 5 using the following four‐parameter sigmoidal‐logistic IC50 equation: Fit=background+range-background/[1+I/IC50^slope]
Where, I is the inhibitor concentration, and background was set to 0 and range to 100, as percent of control values are utilized. K i was determined by nonlinear regression with GraphPad Prism 5 using best fit model.

With `O=C(O)c1cccc(-c2noc(-c3ccccc3F)n2)c1` [ataluren, Ataluren] the “Glucuronidation of ataluren observed” value [1] was “not in lung microsomes” and the IC50 (CYP1A2) was greater than 400 µM.
